In patent US11547681B2, “N-acylethanolamide derivatives and uses thereof” (ELIEM THERAPEUTICS, INC., priority 2016, dated 2023):

How the values were obtained:
[1] = Plasma stability (37° C., pH 7.4), rat; format: in vitro ADME, Sprague-Dawley rat; details: for half-life at 1 μM: male, Sprague-Dawley, rat, plasma; for % Remaining of Initial (n = 1), 0 min / % Remaining of Initial (n = 1), 15 min / % Remaining of Initial (n = 1), 30 min / % Remaining of Initial (n = 1), 60 min / % Remaining of Initial (n = 1), 120 min / % Remaining of Initial: rat plasma; for % Remaining of Initial (n = 1), 0 min: pH 7.4, 0 min; for % Remaining of Initial (n = 1), 15 min: pH 7.4, 15 min; for % Remaining of Initial (n = 1), 30 min: pH 7.4, 30 min; for % Remaining of Initial (n = 1), 60 min: pH 7.4, 60 min; for % Remaining of Initial (n = 1), 120 min: pH 7.4, 120 min; for % Remaining of Initial (n = 1): Rat plasma; for % Remaining of Initial: n = 1
Description: (§1) Studies were carried out in mixed-gender human plasma (Lot #GLP530-5), male Sprague-Dawley rat (Lot #RAT297944, RAT313140), male CD-1 mouse (Lot #MSE237700), and male Beagle dog (Lot #BGL87670, BGL82614), collected on sodium heparin. Plasma was adjusted to pH 7.4 prior to initiating the experiments. DMSO stocks were first prepared for the test articles. Aliquots of the DMSO solutions were dosed into 700 μL of plasma, which had been pre-warmed to 37° C., at a final test article concentration of 1 μM. […] Samples were stored at 4° C. until the end of the experiment. After the final time point was sampled, the plate was mixed and then centrifuged at 3,000 rpm for 10 minutes. Calibration standards were prepared in matched matrix. […] Analytical conditions are outlined in Appendix 8-1.
as §1, with “#AS1650-2),” for “#GLP530-5),”, “#RAT297944),” for “#RAT297944, RAT313140),”, “CD-I” for “CD-1”, “#BGL91384),” for “#BGL87670, BGL82614),”, “10-1.” for “8-1.”
(§2) Studies were carried out in mixed-gender human plasma (Lot #AS1650-2), male Sprague-Dawley rat (Lot #RAT297944), male CD-1 mouse (Lot #MSE237700), and male Beagle dog (Lot #BGL91384), collected on sodium heparin. Plasma was adjusted to pH 7.4 prior to initiating the experiments. DMSO stocks were first prepared for test articles. […] Samples were stored at 4° C. until the end of experiment. After the final time point was sampled, the plate was mixed and then centrifuged at 3,000 rpm for 10 minutes. Calibration standards were prepared in matched matrix. […] Analytical conditions are outlined in Appendix 13-1.
(§3) Studies were carried out in mixed-gender human plasma (Lot #AS 1650-2), male Sprague-Dawley rat (Lot #RAT320835), male CD-1 mouse (Lot #MSE260693), and 6 male Beagle dog (Lot #BGL91384), on sodium heparin. Plasma was adjusted to pH 7.4 prior to initiating the experiments. DMSO stocks were first prepared for the test articles. Aliquots of the DMSO solutions were dosed into 700 μL of plasma, which had been pre-warmed to 37° C., at a final test article concentration of 1 μM. […] Samples were stored at 4° C. until the end of the experiment. After the final time point was sampled, the plate was mixed and then centrifuged at 3,000 rpm for 10 minutes. Calibration standards were prepared in matched matrix. […] Analytical conditions are outlined in Appendix 17-1.

[2] = Plasma stability (37° C., pH 7.4), mouse; format: in vitro ADME, CD-1 mouse; details: for half-life at 1 μM: male, CD-1, mouse, plasma; for % Remaining of Initial (n = 1), 0 min / % Remaining of Initial (n = 1), 15 min / % Remaining of Initial (n = 1), 30 min / % Remaining of Initial (n = 1), 60 min / % Remaining of Initial (n = 1), 120 min / % Remaining of Initial: mouse plasma; for % Remaining of Initial (n = 1), 0 min: pH 7.4, 0 min; for % Remaining of Initial (n = 1), 15 min: pH 7.4, 15 min; for % Remaining of Initial (n = 1), 30 min: pH 7.4, 30 min; for % Remaining of Initial (n = 1), 60 min: pH 7.4, 60 min; for % Remaining of Initial (n = 1), 120 min: pH 7.4, 120 min; for % Remaining of Initial (n = 1): Mouse plasma; for % Remaining of Initial: n = 1
Description: as §1
as §1, with “#AS1650-2),” for “#GLP530-5),”, “#RAT297944),” for “#RAT297944, RAT313140),”, “CD-I” for “CD-1”, “#BGL91384),” for “#BGL87670, BGL82614),”, “10-1.” for “8-1.”
as §2, §3

[3] = pH 7.4, rat plasma, test article 1 μM, 37° C., pH 7.4, read-out: Half-life
[4] = pH 7.4, mouse plasma, test article 1 μM, 37° C., pH 7.4, read-out: Half-life
[5] = pH 7.4, rat plasma, read-out: Half-life
[6] = pH 7.4, mouse plasma, read-out: Half-life

| SMILES | half-life at 1 μM [1, 3] | % Remaining of Initial (n = 1), 0 min ([1]; test article 1 μM, 37° C.) | % Remaining of Initial (n = 1), 15 min ([1]; test article 1 μM, 37° C.) | % Remaining of Initial (n = 1), 30 min ([1]; test article 1 μM, 37° C.) | % Remaining of Initial (n = 1), 60 min ([1]; test article 1 μM, 37° C.) | % Remaining of Initial (n = 1), 120 min ([1]; test article 1 μM, 37° C.) | half-life at 1 μM [2, 4] | % Remaining of Initial (n = 1), 0 min ([2]; test article 1 μM, 37° C.) | % Remaining of Initial (n = 1), 15 min ([2]; test article 1 μM, 37° C.) | % Remaining of Initial (n = 1), 30 min ([2]; test article 1 μM, 37° C.) | % Remaining of Initial (n = 1), 60 min ([2]; test article 1 μM, 37° C.) | % Remaining of Initial (n = 1), 120 min ([2]; test article 1 μM, 37° C.) | also measured |
| --- | --- | --- | --- | --- | --- | --- | --- | --- | --- | --- | --- | --- | --- |
| CCCCC/C=C\C/C=C\CCCCCCCC(=O)OCC(COC(=O)CCC(=O)OCCNC(=O)CCCCCCCCCCCCCCC)OC(=O)CCCCCCC/C=C\C/C=C\CCCCC (stereo not drawn) [Compound I-13] | – | – | – | – | – | – | – | – | – | – | – | – | % Remaining of Initial (n = 1) ([1]; 0 min, 1 μM): 100%; % Remaining of Initial (n = 1) ([1]; 15 min, 1 μM): 69%; % Remaining of Initial (n = 1) ([1]; 30 min, 1 μM): 76%; % Remaining of Initial (n = 1) ([1]; 60 min, 1 μM): 36%; % Remaining of Initial (n = 1) ([1]; 120 min, 1 μM): 5.1%; half-life at 1 μM ([1]; pH 7.4, Rat plasma, 1 μM, read-out: Half-life): 42 min; % Remaining of Initial (n = 1) ([2]; 0 min, 1 μM): 100%; % Remaining of Initial (n = 1) ([2]; 15 min, 1 μM): 82%; % Remaining of Initial (n = 1) ([2]; 30 min, 1 μM): 71%; % Remaining of Initial (n = 1) ([2]; 60 min, 1 μM): 49%; % Remaining of Initial (n = 1) ([2]; 120 min, 1 μM): 35%; half-life at 1 μM ([2]; pH 7.4, Mouse plasma, 1 μM, read-out: Half-life): 70 min |
| CCCCCCCCCCCCCCCC(=O)NCCOC(=O)CCC(=O)OC[C@H]1O[C@@](CO)(O[C@H]2O[C@H](CO)[C@@H](O)[C@H](O)[C@H]2O)[C@@H](O)[C@@H]1O [Compound I-7] | < 1 min | 100% | <1.0% | <1.0% | <1.0% | <1.0% | < 1 min | 100% | <1.0% | <1.0% | <1.0% | <1.0% | – |
| CCCCCCCCCCCCCCCC(=O)NCCOC(=O)CCC(=O)OC(COC(=O)CCC)COC(=O)CCC [Compound I-16] | – | – | – | – | – | – | – | – | – | – | – | – | half-life at 1 μM [1, 5]: < 15 min; half-life at 1 μM ([1]; pH 7.4, rat plasma, read-out: Half-life, calculated value in parentheses): 6.9 min; % Remaining of Initial ([1]; 0 min, 1 μM): 100%; % Remaining of Initial ([1]; 15 min, 1 μM): 20%; % Remaining of Initial ([1]; 30 min, 1 μM): 9.3%; % Remaining of Initial ([1]; 60 min, 1 μM): 4.1%; % Remaining of Initial ([1]; 120 min, 1 μM): 1.6%; half-life at 1 μM [2, 6]: < 15 min; half-life at 1 μM ([2]; pH 7.4, mouse plasma, read-out: Half-life, calculated value in parentheses): 4.7 min; % Remaining of Initial ([2]; 0 min, 1 μM): 100%; % Remaining of Initial ([2]; 15 min, 1 μM): 10%; % Remaining of Initial ([2]; 30 min, 1 μM): 4.0%; % Remaining of Initial ([2]; 60 min, 1 μM): 1.1%; % Remaining of Initial ([2]; 120 min, 1 μM): <1.0% |
| CCCCC/C=C\C/C=C\CCCCCCCC(=O)OCCNC(=O)CCCCCCCCCCCCCCC [Compound I-6] | 110 min | 100% | 93% | 119% | 100% | 29% | 56 min | 100% | 83% | 89% | 39% | 23% | – |
| CCCCCCCCCCCCCCCC(=O)NCCOC(=O)CCC(=O)OCC(COC(=O)CCCCCCC)OC(=O)CCCCCCC (stereo not drawn) [Compound I-3, PEA-Succinate-Glycerol-Di-Caprylic] | > 120 min | 100% | 94% | 79% | 76% | 79% | 9.4 min | 100% | 23% | 24% | 9.1% | 4.7% | – |
| CCCCCCCCCCCCCCCC(=O)NCCOC(=O)CCC(=O)OC(CO)CO [Compound I-8] | – | – | – | – | – | – | – | – | – | – | – | – | half-life at 1 μM [1, 5]: < 1 min; % Remaining of Initial ([1]; 0 min, 1 μM): 100%; % Remaining of Initial ([1]; 15 min, 1 μM): <1.0%; % Remaining of Initial ([1]; 30 min, 1 μM): <1.0%; % Remaining of Initial ([1]; 60 min, 1 μM): <1.0%; % Remaining of Initial ([1]; 120 min, 1 μM): <1.0%; half-life at 1 μM [2, 6]: < 1 min; % Remaining of Initial ([2]; 0 min, 1 μM): 100%; % Remaining of Initial ([2]; 15 min, 1 μM): <1.0%; % Remaining of Initial ([2]; 30 min, 1 μM): <1.0%; % Remaining of Initial ([2]; 60 min, 1 μM): <1.0%; % Remaining of Initial ([2]; 120 min, 1 μM): <1.0% |
| CCCCCCCCCCCCCCCC(=O)NCCOC(=O)CCC [Compound I-2] | 49 min | 100% | 58% | 59% | 46% | 18% | 62 min | 100% | 72% | 71% | 56% | 21% | – |
| CC/C=C\C/C=C\C/C=C\C/C=C\C/C=C\CCCC(=O)OCCNC(=O)CCCCCCCCCCCCCCC [Compound I-5] | > 120 min | 100% | 85% | 90% | 87% | 83% | > 120 min | 100% | 109% | 86% | 73% | 75% | half-life at 1 μM ([2]; pH 7.4, mouse plasma, calculated value beyond duration of experiment, read-out: Half-life (min), calculated half-life in parentheses): 213 min |

Continued, in another order:

| half-life at 1 μM [1, 3] | % Remaining of Initial (n = 1), 0 min ([1]; test article 1 μM, 37° C.) | % Remaining of Initial (n = 1), 15 min ([1]; test article 1 μM, 37° C.) | % Remaining of Initial (n = 1), 30 min ([1]; test article 1 μM, 37° C.) | % Remaining of Initial (n = 1), 60 min ([1]; test article 1 μM, 37° C.) | % Remaining of Initial (n = 1), 120 min ([1]; test article 1 μM, 37° C.) | half-life at 1 μM [2, 4] | % Remaining of Initial (n = 1), 0 min ([2]; test article 1 μM, 37° C.) | % Remaining of Initial (n = 1), 15 min ([2]; test article 1 μM, 37° C.) | % Remaining of Initial (n = 1), 30 min ([2]; test article 1 μM, 37° C.) | % Remaining of Initial (n = 1), 60 min ([2]; test article 1 μM, 37° C.) | % Remaining of Initial (n = 1), 120 min ([2]; test article 1 μM, 37° C.) | SMILES | also measured |
| --- | --- | --- | --- | --- | --- | --- | --- | --- | --- | --- | --- | --- | --- |
| 5.6 min | 100% | 9.0% | 23% | <1.0% | <1.0% | 3 min | 100% | 2.9% | 2.1% | 1.9% | <1.0% | CCCCCCCCCCCCCCCC(=O)NCCOC(=O)CCC(=O)OCC(COC(=O)CCC)OC(=O)CCC (stereo not drawn) [Compound I-11] | – |
| 2.8 min | 100% | 2.5% | <1.0% | <1.0% | <1.0% | 13 min | 100% | 49% | 17% | 2.3% | <1.0% | CCCCCCCCCCCCCCCC(=O)NCCOC(=O)CCC(=O)OCC(O)CO (stereo not drawn) [Compound I-9] | – |
